According to patent publication US6908935B2, “Calcium receptor modulating agents” (Amgen Inc., priority 2002, dated 2005):

These molecules were tested against T1, human parathyroid cell Ca^2+ receptor (hPCaR) (Homo sapiens, UniProt P41180) (assay: [Ca2+]i measurement with fluo-3 in HEK 293 4.0-7 cells stably transfected with hPCaR). Conditions: fluo-3 fluorescence (485/530 nm), effect on [Ca^2+]i.
T1 construct: expressed in transfected cells
T1 sequence (P41180 20-1078): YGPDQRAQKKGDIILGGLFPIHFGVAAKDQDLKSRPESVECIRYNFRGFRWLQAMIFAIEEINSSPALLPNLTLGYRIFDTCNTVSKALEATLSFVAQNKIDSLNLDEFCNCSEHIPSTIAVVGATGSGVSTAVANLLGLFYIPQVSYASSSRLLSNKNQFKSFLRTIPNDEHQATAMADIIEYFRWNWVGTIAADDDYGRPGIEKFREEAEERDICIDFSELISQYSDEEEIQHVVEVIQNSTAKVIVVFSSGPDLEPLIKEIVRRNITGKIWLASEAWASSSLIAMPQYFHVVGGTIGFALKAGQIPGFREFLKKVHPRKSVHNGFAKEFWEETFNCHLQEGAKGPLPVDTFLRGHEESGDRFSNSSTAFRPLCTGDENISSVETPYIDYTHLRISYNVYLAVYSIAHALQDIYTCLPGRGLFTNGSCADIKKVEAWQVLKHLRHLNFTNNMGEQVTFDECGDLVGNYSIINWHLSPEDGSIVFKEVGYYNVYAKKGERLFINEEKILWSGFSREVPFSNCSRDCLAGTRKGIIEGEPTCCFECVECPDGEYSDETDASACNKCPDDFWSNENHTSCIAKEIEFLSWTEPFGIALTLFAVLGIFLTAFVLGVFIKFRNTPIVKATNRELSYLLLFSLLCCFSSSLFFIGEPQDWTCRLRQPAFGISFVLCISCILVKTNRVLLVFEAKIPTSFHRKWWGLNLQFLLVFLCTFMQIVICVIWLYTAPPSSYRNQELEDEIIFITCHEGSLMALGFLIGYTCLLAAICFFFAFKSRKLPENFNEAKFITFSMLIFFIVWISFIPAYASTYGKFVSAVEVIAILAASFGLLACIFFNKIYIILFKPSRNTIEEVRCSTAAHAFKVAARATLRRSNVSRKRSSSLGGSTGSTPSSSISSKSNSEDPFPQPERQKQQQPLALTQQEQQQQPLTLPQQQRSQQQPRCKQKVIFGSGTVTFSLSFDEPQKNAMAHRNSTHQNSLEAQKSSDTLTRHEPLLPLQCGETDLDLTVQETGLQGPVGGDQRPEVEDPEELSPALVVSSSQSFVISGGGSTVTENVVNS
Format: cell-based
In short: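 Cytosolic [Ca2+] was read as fluo-3 fluorescence (ex 485/em 530 nm) after compound addition to washed cells. Cells were hPCaR-transfected HEK 293 clone 7, dye-loaded 30 min at 37 °C with 2 μM fluo-3 acetoxymethyl ester in HEPES-buffered saline pH 7.45 containing 1 mM CaCl2 and 0.5% BSA.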

SMILES	EC50
COc1ccc(-c2cc(CN[C@H](C)c3cccc(OC)c3)ccc2F)cc1 [(1R)-N-((6-fluoro-4′-(methyloxy)-1,1′-biphenyl-3-yl)methyl)-1-(3-(methyloxy)phenyl)ethanamine]	≤ 10 µM
COc1cccc([C@@H](C)NCc2ccc(Cl)c(-c3ccc(OC(F)(F)F)cc3)c2)c1 [(1R)-N-((6-chloro-4′-((trifluoromethyl)oxy)-1,1′-biphenyl-3-yl)methyl)-1-(3-(methyloxy)phenyl)ethanamine]	≤ 10 µM
COc1ccc(CN[C@H](C)c2cccc3ccccc23)cc1-c1ccc2nccn2c1 [(1R)-N-((3-imidazo[1,2-a]pyridin-6-yl-4-(methyloxy)phenyl)methyl)-1-(1-naphthalenyl)ethanamine]	≤ 10 µM
COc1cccc([C@@H](C)NCc2ccc(OC)c(-c3cc(OC)ccn3)c2)c1 [(1R)-N-((4-(methyloxy)-3-(4-(methyloxy)-2-pyridinyl)phenyl)methyl)-1-(3-(methyloxy)phenyl)ethanamine]	≤ 10 µM
COc1ccc(CN[C@H](C)c2cccc3ccccc23)cc1-c1ccc2ccn(C)c2c1 [(1R)-N-((3-(1-methyl-1H-indol-6-yl)-4-(methyloxy)phenyl)methyl)-1-(1-naphthalenyl)ethanamine]	≤ 10 µM
Cc1ccc([C@@H](C)NCc2cccc(-c3ncnc4c3ncn4C)c2)cc1 [Example 241, (1R)-1-(4-methylphenyl)-N-((3-(9-methyl-9H-purin-6-yl)phenyl)methyl)ethanamine]	≤ 10 µM
COc1ccc([C@@H](C)NCc2ccc(OC)c(-c3ccc4[nH]ccc4c3)c2)cc1 [(1R)-N-((3-(1H-indol-5-yl)-4-(methyloxy)phenyl)methyl)-1-(4-(methyloxy)phenyl)ethanamine]	≤ 10 µM
COc1cccc([C@@H](C)NCc2ccc(OC)c(C3CCN(C)CC3)c2)c1 [(1R)-N-((4-(methyloxy)-3-(1-methyl-4-piperidinyl)phenyl)methyl)-1-(3-(methyloxy)phenyl)ethanamine]	≤ 10 µM
COc1ccc(CN[C@H](C)c2cccc3ccccc23)cc1-c1cccc(C(F)(F)F)c1 [(1R)-N-((6-(methyloxy)-3′-(trifluoromethyl)-1,1′-biphenyl-3-yl)methyl)-1-(1-naphthalenyl)ethanamine]	≤ 10 µM
COc1ccc(CN[C@H](C)c2cccc(F)c2)cc1-c1ccccc1 [(1R)-1-(3-fluorophenyl)-N-((6-(methyloxy)-1,1′-biphenyl-3-yl)methyl)ethanamine]	≤ 10 µM
COc1ccc(CN[C@H](C)c2cccc3ccccc23)cc1-c1ccc2oc(C)nc2c1 [(1R)-N-((3-(2-methyl-1,3-benzoxazol-5-yl)-4-(methyloxy)phenyl)methyl)-1-(1-naphthalenyl)ethanamine]	≤ 10 µM
CCOc1ccc(-c2cc(CN[C@H](C)c3ccccc3)ccc2OC)cn1 [(1R)-N-((3-(6-(ethyloxy)-3-pyridinyl)-4-(methyloxy)phenyl)methyl)-1-phenylethanamine]	≤ 10 µM
COc1ccc(CN[C@H](C)c2cccc3ccccc23)cc1-c1ccc2nonc2c1 [(1R)-N-((3-(2,1,3-benzoxadiazol-5-yl)-4-(methyloxy)phenyl)methyl)-1-(1-naphthalenyl)ethanamine]	≤ 10 µM
COc1cccc([C@@H](C)NCc2ccc(OC)c(-c3ccc4nonc4c3)c2)c1 [(1R)-N-((3-(2,1,3-benzoxadiazol-5-yl)-4-(methyloxy)phenyl)methyl)-1-(3-(methyloxy)phenyl)ethanamine]	≤ 10 µM
COc1ccc(-c2cc(CN[C@H](C)c3cccc(OC)c3)ccc2OC)nc1 [(1R)-N-((4-(methyloxy)-3-(5-(methyloxy)-2-pyridinyl)phenyl)methyl)-1-(3-(methyloxy)phenyl)ethanamine]	≤ 10 µM
COc1ccc(-c2cc(CN[C@H](C)c3ccccc3)ccc2F)cc1 [Example 465, (1R)-N-((6-fluoro-4′-(methyloxy)-1,1′-biphenyl-3-yl)methyl)-1-phenylethanamine]	≤ 10 µM

The next lines start with the values.

EC50	SMILES
≤ 10 µM	COc1cccc([C@@H](C)NCc2ccc(OC)c(-c3nccs3)c2)c1 [(1R)-1-(3-(methyloxy)phenyl)-N-((4-(methyloxy)-3-(1,3-thiazol-2-yl)phenyl)methyl)ethanamine]
≤ 10 µM	C[C@@H](NCc1cccc(-c2cncc(C(N)=O)c2)c1)c1cccc2ccccc12 [Example 460, 5-(3-((((1R)-1-(1-naphthalenyl)ethyl)amino)methyl)phenyl)-3-pyridinecarboxamide]
≤ 10 µM	COc1cccc([C@@H](C)NCc2ccc(OC)c(-c3cccc(C(F)(F)F)c3)c2)c1 [(1R)-1-(3-(methyloxy)phenyl)-N-((6-(methyloxy)-3′-(trifluoromethyl)-1,1′-biphenyl-3-yl)methyl)ethanamine]
≤ 10 µM	C[C@@H](NCc1cccc(-c2ccccn2)c1)c1cccc2ccccc12 [(1R)-1-(1-naphthalenyl)-N-((3-(2-pyridinyl)phenyl)methyl)ethanamine]
≤ 10 µM	COc1ccc(CN[C@H](C)c2ccccc2)cc1-c1ccc(=O)n(CC(F)(F)F)c1 [5-(2-(methyloxy)-5-((((1R)-1-phenylethyl)amino)methyl)phenyl)-1-(2,2,2-trifluoroethyl)-2(1H)-pyridinone]
≤ 10 µM	CCNC(=O)Nc1ccc(CN[C@H](C)c2cccc(OC)c2)cc1-c1ccc(OC)cc1 [N-ethyl-N′-(4′-(methyloxy)-5-((((1R)-1-(3-(methyloxy)phenyl)ethyl)amino)methyl)-1,1′-biphenyl-2-yl)urea]
≤ 10 µM	CCNC(=O)Nc1ccc(CN[C@H](C)c2ccccc2)cc1-c1ccc(OC)cc1 [N-ethyl-N′-(4′-(methyloxy)-5-((((1R)-1-phenylethyl)amino)methyl)-1,1′-biphenyl-2-yl)urea]
≤ 10 µM	COc1cccc([C@@H](C)NCc2ccc(F)c(-c3ccc(F)cc3)c2)c1 [(1R)-N-((4′,6-difluoro-1,1′-biphenyl-3-yl)methyl)-1-(3-(methyloxy)phenyl)ethanamine]
≤ 10 µM	COc1ccc(CN[C@H](C)c2cccc3ccccc23)cc1-c1ccc2c(cnn2C)c1 [(1R)-N-((3-(1-methyl-1H-indazol-5-yl)-4-(methyloxy)phenyl)methyl)-1-(1-naphthalenyl)ethanamine]
≤ 10 µM	COc1cccc(-c2cc(CN[C@H](C)c3cccc(OC)c3)ccc2OC)c1 [(1R)-N-((3′,6-bis(methyloxy)-1,1′-biphenyl-3-yl)methyl)-1-(3-(methyloxy)phenyl)ethanamine]
≤ 10 µM	COc1ccc(CNC(C)c2cccc(F)c2)cc1-c1ccc(C(F)(F)F)cc1 (stereo not drawn) [1-(3-fluorophenyl)-N-((6-(methyloxy)-4′-(trifluoromethyl)-1,1′-biphenyl-3-yl)methyl)ethanamine]
≤ 10 µM	COc1ccc(CN[C@H](C)c2cccc(F)c2)cc1-c1ccc(C(F)(F)F)cc1 [(1R)-1-(3-fluorophenyl)-N-((6-(methyloxy)-4′-(trifluoromethyl)-1,1′-biphenyl-3-yl)methyl)ethanamine]
≤ 10 µM	COc1ccc(CN[C@H](C)c2cccc3ccccc23)cc1-c1ccc(OCCN2CCCC2)nc1 [(1R)-N-((4-(methyloxy)-3-(6-((2-(1-pyrrolidinyl)ethyl)oxy)-3-pyridinyl)phenyl)methyl)-1-(1-naphthalenyl)ethanamine]
≤ 10 µM	COc1cccc([C@@H](C)NCc2cccc(-c3nccs3)c2)c1 [(1R)-1-(3-(methyloxy)phenyl)-N-((3-(1,3-thiazol-2-yl)phenyl)methyl)ethanamine]
